≈ marks a conversion by molar mass, not a printed value.
How the values were obtained:
Apis mellifera = conditions: acute; duration: 48 hours; oral; unspecified; mortality
Pimephales promelas = conditions: chronic/long-term; duration: 33 days; other
Bibionidae = conditions: chronic/long-term; duration: 26 days; development
Perdix sp. = conditions: acute; oral; unspecified; mortality
Anas platyrhynchos = conditions: short-term; oral; feed; mortality
Canidae = conditions: oral, Dog Other, body weight
Mus musculus = conditions: acute; oral; mortality
Daphnia magna = conditions: chronic/long-term; duration: 21 days; other
Lepomis macrochirus = conditions: acute; duration: 96 hours; mortality
Colinus virginianus = conditions: reproduction developmental
Typhlodromus pyri = experiment: LR50; higher = less toxic; conditions: chronic/long-term; duration: 7 days; mortality

OC(Cn1cncn1)(c1ccc(F)cc1)c1ccccc1F (configuration not stated) [Flutriafol]
LD50 (Apis mellifera): > 2 µg/piece | NOEC (Pimephales promelas): 4.8 mg/L | NOEC (Bibionidae): 1.6 mg/L | LD50 (Perdix sp.): 616 mg/kg | LC50 (Anas platyrhynchos): 435 mg/kg-day | LC50 (Tagia sp.; acute, duration: 14 days, mortality): > 1000 mg/kg | NOEC (Tagia sp.; chronic/long-term, duration: 56 days): 12.2 mg/kg | NOAEL (Canidae; chronic, duration: 1 years): 5 mg/kg-day | NOAEL (Canidae; subchronic, duration: 90 days): 5 mg/kg-day | LD50 (Mus musculus): 179 mg/kg | NOAEL (Rattus norvegicus; chronic, duration: 2 years, organ weight): 1 mg/kg-day | NOAEL (Rattus norvegicus; reproduction developmental, reproduction): 13.5 mg/kg-day | NOEC (Daphnia magna): 0.31 mg/L | LC50 (Lepomis macrochirus): 33 µg/mL (≈ 110 µM) | NOEC (Colinus virginianus): 35.8 mg/kg-day | LR50 (Typhlodromus pyri): 204 g/ha

NC(Cc1ncn[nH]1)C(=O)O (configuration not stated) [1,2,4-Triazole-3-alanine]
NOAEL (Rattus norvegicus; subchronic, duration: 90 days): 90 mg/kg-day

Reference: EPA's ToxValDB 9.5 (doi:10.2903/j.efsa.2010.1868)
